molecular target: recombinant IL4I1 (Homo sapiens (Human), UniProt Q96RQ9); assay: IL4I1 Enzymatic Assay (Amplex Red/HRP coupled fluorescence detection of H2O2); assay type: biochemical; conditions: 240 min; recombinant IL4I1, four-hour pre-incubation with compound
Outline: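 Recombinant human IL4I1 (1 nM final) pre-incubated 4 h with compound at ambient temperature in 50 mM Hepes pH 7.0, 0.005% Tween20. Started with 1 mM each Phe/Tyr/Trp plus Amplex Red/HRP; H2O2-derived resorufin fluorescence read after 120 min; EC50 from ten-point 1:3 titration, four-parameter fit.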

Sequence of recombinant IL4I1 (Q96RQ9 22-567): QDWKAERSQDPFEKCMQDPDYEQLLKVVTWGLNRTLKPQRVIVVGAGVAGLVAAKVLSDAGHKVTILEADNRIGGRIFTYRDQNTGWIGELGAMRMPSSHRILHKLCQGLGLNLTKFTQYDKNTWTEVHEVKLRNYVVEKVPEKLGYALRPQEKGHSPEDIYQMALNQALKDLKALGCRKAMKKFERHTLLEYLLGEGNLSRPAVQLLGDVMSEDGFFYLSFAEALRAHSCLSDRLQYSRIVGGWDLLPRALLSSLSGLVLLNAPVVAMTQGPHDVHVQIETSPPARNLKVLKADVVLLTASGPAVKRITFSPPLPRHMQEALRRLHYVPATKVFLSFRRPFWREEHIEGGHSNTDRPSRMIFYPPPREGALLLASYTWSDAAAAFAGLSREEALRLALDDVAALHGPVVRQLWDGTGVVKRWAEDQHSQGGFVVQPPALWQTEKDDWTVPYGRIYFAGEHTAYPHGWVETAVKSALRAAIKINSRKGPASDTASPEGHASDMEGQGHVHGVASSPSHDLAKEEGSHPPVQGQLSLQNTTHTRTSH

Row | Compound | EC50 [nM]
1 | O=C1C(=O)N(C23CC(C2)C3)CCN1Cc1ncc(-n2nccn2)cc1F [Example 405, 1-(bicyclo[1.1.1]pentan-1-yl)-4-((3-fluoro-5-(2H-1,2,3-triazol-2-yl)pyridin-2-yl)methyl)piperazine-2,3-dione] | 23
2 | O=C1C(=O)N(C23CC(C2)C3)CCN1Cc1ccc(-n2nccn2)cc1 [Example 406, 1-(4-(2H-1,2,3-triazol-2-yl)benzyl)-4-(bicyclo[1.1.1]pentan-1-yl)piperazine-2,3-dione] | 15
3 | O=C1C(=O)N(C23CC(C2)C3)CCN1Cc1ccc(-n2nccn2)cc1F [Example 407, 1-(bicyclo[1.1.1]pentan-1-yl)-4-(2-fluoro-4-(2H-1,2,3-triazol-2-yl)benzyl)piperazine-2,3-dione] | 27
4 | O=c1c(=O)n([C@H]2C[C@H]3C[C@H]3C2)ccn1Cc1ccc(-n2nccn2)cn1 [Example 408, 1-((5-(2H-1,2,3-triazol-2-yl)pyridin-2-yl)methyl)-4-((cis)-bicyclo[3.1.0]hexan-3-yl)-1,4-dihydropyrazine-2,3-dione] | 8
5 | O=c1c(=O)n(C2CCC2)ccn1Cc1ccc(-n2nccn2)nc1 [Example 409, 1-((6-(2H-1,2,3-triazol-2-yl)pyridin-3-yl)methyl)-4-cyclobutyl-1,4-dihydropyrazine-2,3-dione] | 9
6 | O=c1c(=O)n(C2CCC2)ccn1Cc1ccc(-n2ccnn2)nc1 [Example 410, 1-((6-(1H-1,2,3-triazol-1-yl)pyridin-3-yl)methyl)-4-cyclobutyl-1,4-dihydropyrazine-2,3-dione] | 5
7 | O=c1c(=O)n(C23CC(C2)C3)ccn1Cc1ccc(-n2ccnn2)nc1 [Example 411, 1-((6-(1H-1,2,3-triazol-1-yl)pyridin-3-yl)methyl)-4-(bicyclo[1.1.1]pentan-1-yl)-1,4-dihydropyrazine-2,3-dione] | 7
8 | O=c1c(=O)n(C23CC(C2)C3)ccn1Cc1ccc(-n2nccn2)nc1 [Example 412, 1-((6-(2H-1,2,3-triazol-2-yl)pyridin-3-yl)methyl)-4-(bicyclo[1.1.1]pentan-1-yl)-1,4-dihydropyrazine-2,3-dione] | 19
9 | N#CC1(n2ccn(Cc3ccc(-n4nccn4)cn3)c(=O)c2=O)CC1 [Example 413, 1-(4-((5-(2H-1,2,3-triazol-2-yl)pyridin-2-yl)methyl)-2,3-dioxo-3,4-dihydropyrazin-1(2H)-yl)cyclopropane-1-carbonitrile] | 66
10 | CC1(n2ccn(Cc3ccc(-n4ccnn4)nc3)c(=O)c2=O)CC1 [Example 414, 1-((6-(1H-1,2,3-triazol-1-yl)pyridin-3-yl)methyl)-4-(1-methylcyclopropyl)-1,4-dihydropyrazine-2,3-dione] | 15
11 | CC1(n2ccn(Cc3ccc(-n4nccn4)nc3)c(=O)c2=O)CC1 [Example 415, 1-((6-(2H-1,2,3-triazol-2-yl)pyridin-3-yl)methyl)-4-(1-methylcyclopropyl)-1,4-dihydropyrazine-2,3-dione] | 138
12 | O=c1c(=O)n([C@H]2C[C@H]3C[C@H]3C2)ccn1Cc1ccc(-c2cccnc2)nn1 [Example 416, 1-((cis)-bicyclo[3.1.0]hexan-3-yl)-4-((6-(pyridin-3-yl)pyridazin-3-yl)methyl)-1,4-dihydropyrazine-2,3-dione] | 28
13 | O=c1c(=O)n(C23CC(C2)C3)ccn1Cc1cc(-c2cccc(F)c2)on1 [Example 417, 1-(bicyclo[1.1.1]pentan-1-yl)-4-((5-(3-fluorophenyl)isoxazol-3-yl)methyl)-1,4-dihydropyrazine-2,3-dione] | 2
14 | O=C1C(=O)N(C23CC(C2)C3)CCN1Cc1cc(-c2ccc(F)cc2)on1 [Example 418, 1-(bicyclo[1.1.1]pentan-1-yl)-4-((5-(4-fluorophenyl)isoxazol-3-yl)methyl)piperazine-2,3-dione] | 6
15 | O=c1c(=O)n(C23CC(C2)C3)ccn1Cc1cc(-c2ccc(F)cc2)on1 [Example 419, 1-(bicyclo[1.1.1]pentan-1-yl)-4-((5-(4-fluorophenyl)isoxazol-3-yl)methyl)-1,4-dihydropyrazine-2,3-dione] | 2

Source: patent US20240246937A1 (MERCK SHARP & DOHME LLC, priority 2021, published 2024)
